# Assay results published in patent US7666883B2, “Antimalarial Baylis-Hillman adducts and a process for the preparation thereof” (Council of Scientific and Industrial Research, priority 2005, dated 2010).
# Assays:
# Type in all cases: cell-based
# [1] = tested on: Chloroquine resistant (CQR) P. falciparum strain; experiment: Schizont maturation inhibition (SMI), chloroquine resistant strain; settings: Plasmodium falciparum, schizont maturation inhibition determined after 24 hr
# Experimental: (§1) Parasites were cultured in O (+) erythrocytes in RPMI-1640 media supplemented with 25 mM HEPES buffer and 10% AB (+) serum by candlejar technique.^9 Initial culture was maintained in small vials (2.5 cm dia.) with 10% haematocrit, i.e. 10 μl erythrocytes containing 1.5% ring stage parasite in 100 μl complete media. The culture volume per well for the assay was 100 μl. Parasitamia was determined for each set of culture, number of parasites for the assay were adjusted at 1 to 1.5% by diluting with fresh O (+) RBC. Assay was done in 96 well microtitre flat-bottomed tissue culture plates. Parasite culture was synchronized at ring forms using density gradient method^10 and cultured for 24 h. in the presence of various doses of compounds and chloroquine for their effect in schizont maturation. Test was done in duplicate wells for each dose of the drugs. Control culture was done with RPMI-164 containing 10% AB (+) serum. Growth of the parasites from duplicate wells of each concentration was monitored in JSB stained^11 blood smears by counting number of schizont per 200 asexual parasites. Percent schizont maturation inhibition was calculated by the formula: (1−Nt/Nc)×100 where, Nt and Nc represent the number of schizont in the test and control well respectively.
# [2] = tested on: Chloroquine sensitive (CQS) P. falciparum strain; experiment: Schizont maturation inhibition (SMI), chloroquine sensitive strain; settings: Plasmodium falciparum, schizont maturation inhibition determined after 24 hr
# Experimental: as §1
# [3] = tested on: Chloroquine resistant (CQR) P. falciparum strain; experiment: Total parasite growth inhibition (PGI), chloroquine resistant strain; settings: Plasmodium falciparum, total parasite growth inhibition determined after 48 hr
# [4] = tested on: Chloroquine sensitive (CQS) P. falciparum strain; experiment: Total parasite growth inhibition (PGI), chloroquine sensitive strain; settings: Plasmodium falciparum, total parasite growth inhibition determined after 48 hr
SMILES,IC50 [1],IC90 [1],IC50 [2],IC90 [2],IC50 [3],IC90 [3],IC50 [4],IC90 [4]
"C=C(C#N)C(O)c1cc(C)cnc1Cl (stereo not drawn) [Ia, 2-[(2-Chloro-5-methylpyridine-3-yl)(hydroxy)methyl]acrylonitrile]",22.5 µg/mL,125 µg/mL,1.25 µg/mL,25.5 µg/mL,10.5 µg/mL,300 µg/mL,1.3 µg/mL,85 µg/mL
"C=C(C#N)C(O)c1cc(CC)cnc1Cl (stereo not drawn) [Ib, 2-[(2-Chloro-5-ethylpyridine-3-yl)(hydroxy)methyl]acrylonitrile]",2.5 µg/mL,6.5 µg/mL,1.8 µg/mL,15.5 µg/mL,5.5 µg/mL,26 µg/mL,4 µg/mL,31 µg/mL
"C=C(C#N)C(O)c1cc(-c2ccccc2)cnc1Cl (stereo not drawn) [Ic, 2-[(2-Chloro-5-phenylpyridine-3-yl)(hydroxy)methyl]acrylonitrile]",0.9 µg/mL,1.5 µg/mL,3.6 µg/mL,25.5 µg/mL,2.2 µg/mL,6.75 µg/mL,8 µg/mL,23 µg/mL
"C=C(C#N)C(O)c1ccc(C(=O)OC)nc1Cl (stereo not drawn) [Id, Methyl 6-chloro-5-(2-cyano-1-hydroxyallyl) 2-pyridine carboxylate]",5.75 µg/mL,25.5 µg/mL,3.4 µg/mL,22 µg/mL,6.75 µg/mL,29 µg/mL,7 µg/mL,29 µg/mL
"C=C(C(=O)OC)C(O)c1cc(C)cnc1Cl (stereo not drawn) [Ie, Methyl 2-[(2-chloro-5-methylpyridine-3-)(hydroxy)methyl]acrylate]",3.05 µg/mL,7 µg/mL,18 µg/mL,32 µg/mL,5.75 µg/mL,27.5 µg/mL,28.5 µg/mL,115 µg/mL
"C=C(C(=O)OC)C(O)c1cc(-c2ccccc2)cnc1Cl (stereo not drawn) [If, Methyl 2-[(2-chloro-5-phenylpyridine-3-yl)(hydroxy)methyl]acrylate]",5 µg/mL,30 µg/mL,45 µg/mL,125 µg/mL,10.8 µg/mL,77.5 µg/mL,115 µg/mL,350 µg/mL
